According to PubChem BioAssay (NCI):
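The compound was tested at five concentrations on cells cultured in 96-well plates, with a 48-hour exposure period. At the GI50, growth is halved. TGI denotes the concentration required for complete inhibition of growth.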

Experiments:
Test in all cases: NCI anticancer screen, dose series, 48 h
HCC-2998 colon = test system: HCC-2998 colon
MALME-3M melanoma = test system: MALME-3M melanoma
BT-549 breast = test system: BT-549 breast
IGROV1 ovarian = test system: IGROV1 ovarian
HT29 colon = test system: HT29 colon
RPMI-8226 leukemia = test system: RPMI-8226 leukemia
OVCAR-8 ovarian = test system: OVCAR-8 ovarian
K-562 leukemia = test system: K-562 leukemia
MDA-MB-435 = test system: MDA-MB-435
CCRF-CEM leukemia = test system: CCRF-CEM leukemia
SNB-19 CNS = test system: SNB-19 CNS
SK-MEL-5 melanoma = test system: SK-MEL-5 melanoma
A498 renal = test system: A498 renal

Structure (SMILES)	TGI (HCC-2998 colon)	TGI (MALME-3M melanoma)	TGI (BT-549 breast)	TGI (IGROV1 ovarian)	TGI (HT29 colon)	TGI (RPMI-8226 leukemia)	TGI (OVCAR-8 ovarian)	TGI (K-562 leukemia)	TGI (MDA-MB-435)	TGI (CCRF-CEM leukemia)	TGI (SNB-19 CNS)	TGI (SK-MEL-5 melanoma)	TGI (A498 renal)	GI50 (RPMI-8226 leukemia)
[N-]=[N+]=Nc1ccc2c(c1)Sc1ccccc1N2CCCCCl	> 100 µM	> 100 µM	> 100 µM	> 100 µM	> 100 µM	> 100 µM	> 100 µM	> 100 µM	> 100 µM	> 100 µM	> 100 µM	59.8 µM	> 100 µM	
NC1CC(=O)c2cc(Br)sc21 (stereo not drawn)	> 100 µM	> 100 µM	> 100 µM	> 100 µM	> 100 µM	> 100 µM	> 100 µM	> 100 µM	> 100 µM	> 100 µM	> 100 µM	> 100 µM	> 100 µM	
CCOC(=O)c1ccc(C(=O)/C(C#N)=C2\CCCN2)[nH]1	> 100 µM	> 100 µM	> 100 µM	> 100 µM	> 100 µM	> 100 µM	> 100 µM	> 100 µM	> 100 µM	> 100 µM	> 100 µM	> 100 µM	> 100 µM	
C=CCOCn1ccc(=O)[nH]c1=O	> 100 µM	> 100 µM	> 100 µM	> 100 µM	> 100 µM	> 100 µM	> 100 µM	> 100 µM	> 100 µM	> 100 µM	> 100 µM	> 100 µM	> 100 µM	
CCOC(=O)n1cncc1CC(NC(=O)Cc1c(C(=O)C=C(C)C)[nH]c2ccccc12)C(=O)OC (stereo not drawn)	32.2 µM	32.8 µM	37.3 µM	37.5 µM	66.6 µM	> 100 µM	40.2 µM	> 100 µM	37.1 µM	50.9 µM	30.5 µM	37.5 µM	41.1 µM	
CC1(C)C(=O)N=C(N)N1C(=O)OCc1ccccc1	> 100 µM	> 100 µM	> 100 µM	> 100 µM	> 100 µM	> 100 µM	> 100 µM	> 100 µM	> 100 µM	> 100 µM	> 100 µM	> 100 µM	> 100 µM	
N=C1C(=N)c2ccccc2-c2ccccc21	3.47 µM	2.57 µM	2.23 µM	3.93 µM	3.81 µM	> 100 µM			0.4 µM	> 20 µM	3.01 µM	1.53 µM	4.13 µM	1.75 µM
COC(=O)[C@H](Cc1ccccc1)NC(=O)N1CCN(C(=O)N[C@@H](Cc2ccccc2)C(=O)OC)CCN(C(=O)N[C@@H](Cc2ccccc2)C(=O)OC)CC1	> 100 µM	> 100 µM	> 100 µM	> 100 µM	> 100 µM	> 100 µM	> 100 µM	> 100 µM	> 100 µM	> 100 µM	> 100 µM	> 100 µM	> 100 µM	
COC(=O)C1(O)c2ccccc2N=C2C(=O)c3ccccc3N21 (stereo not drawn)	> 100 µM	> 100 µM	> 100 µM	> 100 µM	> 100 µM	> 100 µM	> 100 µM	> 100 µM	26.3 µM	> 100 µM		> 100 µM	> 100 µM	
O=c1c2cccnc2nc2ccc3c[nH][nH]c3c12	> 10 µM	> 10 µM	> 10 µM	> 10 µM	> 10 µM	> 10 µM	> 10 µM	> 10 µM	> 10 µM	> 10 µM	> 10 µM	> 10 µM	> 10 µM	
O=C(Nc1nc(C23CC4CC(CC(C4)C2)C3)cs1)c1cc2cc(Br)cc(Br)c2oc1=O	> 100 µM	> 100 µM	> 100 µM	> 100 µM	> 100 µM	> 100 µM	> 100 µM	> 100 µM	> 100 µM	> 100 µM	> 100 µM	> 100 µM	> 100 µM	
COC(=N)C12C(N)=NC(OC)(OC)C1(C#N)C21C(=O)N(c2ccccc2)N=C1C (stereo not drawn)	> 100 µM	> 100 µM	> 100 µM	> 100 µM	> 100 µM	> 100 µM	> 100 µM	> 100 µM	> 100 µM	> 100 µM	> 100 µM		> 100 µM	
COc1ccc(CN(CCc2c[nH]c3ccccc23)Cc2ccc(OC)cc2)cc1	43.1 µM	8.82 µM	11.4 µM	9.49 µM	6.41 µM	> 41.9 µM		> 100 µM	11.7 µM	> 100 µM	> 44.4 µM	9.74 µM	9.3 µM	
c1ccc2sc(C3(N4CCCCC4)CCCC3)cc2c1	13.5 µM	29.1 µM	27.5 µM	23.6 µM	13.5 µM	10.4 µM	24.7 µM	23.9 µM	29.4 µM	17.7 µM	29.2 µM	22.9 µM	25.7 µM	
